Reference: patent US20230202989A1, “COMPOUNDS” (JANSSEN PHARMACEUTICA NV, priority 2020, published 2023)
Where two headings read alike, the source gives them in different places.

Experiments:
TNF = assay: PBMC assay: TNF cytokine levels after LPS stimulation (MSD); format: cell-based; settings: PBMC, human PBMCs, 100 ng/ml LPS for 6 hrs
Summary of the method: (§1)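 TNF (EC50) and IL-1β (IC50) were quantified by MSD in supernatants after 6 h stimulation with 100 ng/ml LPS. Thawed healthy-donor PBMCs, 7.5×10^4 per well, were exposed to 1:3 compound dilutions for 30 min beforehand at 37 °C.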

IL-1β = assay: PBMC assay: inhibition of IL-1β release after LPS stimulation (MSD); format: cell-based; settings: PBMC, human PBMCs, 100 ng/ml LPS for 6 hrs, MSD, 96 well plates, read-out: IL1β IC50
Summary of the method: as §1

EC50 (TNF; Homo sapiens, 6 h) [nM]	melting point [°C]	IC50 (IL-1β; Homo sapiens, 6 h) [nM]	Compound	EC50 (TNF) [nM]	IC50 (IL-1β) [nM]
5580	246.08	30	CC(C)c1nn(CC(=O)Nc2ccc3nncn3n2)c(=O)c2ccc(C(F)(F)F)cc12 [Final Cpd X2, N-([1,2,4]triazolo[4,3-b]pyridazin-6-yl)-2-(4-isopropyl-1-oxo-6-(trifluoromethyl)phthalazin-2(1H)-yl)acetamide]	–	–
> 20000	295.46	114	CC(C)c1nn(CC(=O)Nc2ccc3nc[nH]c3n2)c(=O)c2ccc(C(F)(F)F)cc12 [Final Cpd X13]	–	–
> 20000	238.55	137	CC(C)c1nn(CC(=O)Nc2ccc3nccn3n2)c(=O)c2ccc(C(F)(F)F)cc12 [Final Cpd X16]	–	–
15500	222.09	164	CC(C)c1nn(CC(=O)Nc2ccc3cncn3c2)c(=O)c2ccc(C(F)(F)F)cc12 [Final Cpd X20]	–	–
> 20000	232.18	170	CC(C)c1nn(CC(=O)Nc2cc(F)[nH]c(=O)c2)c(=O)c2ccc(C(F)(F)F)cc12 [Final Cpd X22]	–	–
> 20000	–	990	CC(C)c1nn(CC(=O)Nc2ccncn2)c(=O)c2ccc(C(C)(C)C)cc12 [X-1050]	–	–
7020	–	106	CC(C)c1nn(CC(=O)Nc2ccc3nncn3n2)c(=O)c2ccc(C(C)(C)C)cc12 [X-1051]	–	–
> 20000	–	90	CC(C)c1nn(CC(=O)N[C@H]2C[C@@](C)(O)C2)c(=O)c2ccc(C(C)(F)F)cc12 [X-1062]	–	–
1850	–	16	CC(C)c1nn(CC(=O)Nc2ccc3nncn3c2)c(=O)c2ccc(C(C)(F)F)cc12 [X-1063]	–	–
18900	–	533	CC(C)c1nn(CC(=O)Nc2ccnnc2)c(=O)c2ccc(C(C)(F)F)cc12 [X-1064]	–	–
15700	–	293	CC(C)c1nn(CC(=O)Nc2ccc(=O)n(C)n2)c(=O)c2ccc(C(C)(F)F)cc12 [X-1065]	–	–
6780	–	156	CC(C)c1nn(CC(=O)Nc2ccc(=O)n(C)c2)c(=O)c2ccc(C(C)(F)F)cc12 [X-1066]	–	–
13200	–	175	CC(C)c1nn(CC(=O)Nc2ccc3nccn3c2)c(=O)c2ccc(C(C)(F)F)cc12 [X-1067]	–	–
19700	–	33	CC(C)c1nn(CC(=O)Nc2ccc3nncn3c2)c(=O)c2ccc(C(C)(C)F)cc12 [X-1076]	–	–
16500	–	144	CC(C)c1nn(CC(=O)Nc2ccc3nccn3c2)c(=O)c2ccc(C(C)(C)F)cc12 [X-1077]	–	–
> 20000	–	143	CC(C)c1nn(CC(=O)Nc2cn3cnnc3cn2)c(=O)c2ccc(C(C)(F)F)cc12 [X-1085]	–	–

More lines, now with the values behind:

Compound	EC50 (TNF; Homo sapiens, 6 h) [nM]	melting point [°C]	IC50 (IL-1β; Homo sapiens, 6 h) [nM]	EC50 (TNF) [nM]	IC50 (IL-1β) [nM]
CCN1CC[C@@H](O)[C@@H](NC(=O)Cn2nc(C3CC3)c3cc(C(F)(F)F)ccc3c2=O)C1 [Final Cpd X19]	> 20000	178.86	161	–	–
O=C(Cn1nc(C2CC2)c2cc(C(F)(F)F)ccc2c1=O)Nc1ccc2nncn2c1 [Final Cpd X23]	> 20000	294.49	172	–	–
CC(C)c1nn(CC(=O)Nc2ccn3ncnc3c2)c(=O)c2ccc(C(F)(F)F)cc12 [Final Cpd X90]	> 20000	215.56	936	–	–
CC(C)c1nn(CC(=O)Nc2ccc3nncn3c2)c(=O)c2ccc(C(C)(C)O)cc12 [X-1045]	> 20000	–	3760	–	–
CC(C)c1nn(CC(=O)Nc2ccc3nncn3c2)c(=O)c2ccc(N(C)C)cc12 [X-1046]	> 20000	–	422	–	–
CC(C)c1nn(CC(=O)N[C@H]2C[C@@](C)(O)C2)c(=O)c2ccc(N(C)C)cc12 [X-1047]	> 20000	–	1570	–	–
CC(C)c1nn(CC(=O)Nc2ccc3nncn3c2)c(=O)c2ccc(C(C)(C)C)cc12 [X-1048]	8080	–	270	–	–
CC(C)c1nn(CC(=O)N[C@H]2C[C@@](C)(O)C2)c(=O)c2ccc(C(C)(C)C)cc12 [X-1049]	> 20000	–	426	–	–
CC(C)c1nn(CC(=O)Nc2ccc3nncn3c2)c(=O)c2ccc(C(F)(F)C(F)(F)F)cc12 [X-1052]	> 20000	–	1260	–	–
CC(C)c1nn(CC(=O)Nc2ccnnc2)c(=O)c2ccc(C(F)(F)C(F)(F)F)cc12 [X-1053]	> 20000	–	3180	–	–
COC(C)c1ccc2c(=O)n(CC(=O)Nc3ccc4nncn4c3)nc(C(C)C)c2c1 (centres unmarked) [X-1054]	18600	–	539	–	–
COC(C)c1ccc2c(=O)n(CC(=O)N[C@H]3C[C@@](C)(O)C3)nc(C(C)C)c2c1 (some centres unmarked) [X-1055]	> 20000	–	2130	–	–
COC(C)c1ccc2c(=O)n(CC(=O)Nc3ccncn3)nc(C(C)C)c2c1 (centres unmarked) [X-1056]	14000	–	1610	–	–
COC(C)(C)c1ccc2c(=O)n(CC(=O)Nc3ccc4nncn4c3)nc(C(C)C)c2c1 [X-1057]	17500	–	1910	–	–
COC(C)(C)c1ccc2c(=O)n(CC(=O)N[C@H]3C[C@@](C)(O)C3)nc(C(C)C)c2c1 [X-1058]	> 20000	–	4560	–	–
COC(C)(C)c1ccc2c(=O)n(CC(=O)Nc3ccncn3)nc(C(C)C)c2c1 [X-1059]	> 20000	–	2420	–	–
CC(C)c1nn(CC(=O)N[C@H]2C[C@@](C)(O)C2)c(=O)c2ccc(C#N)cc12 [X-1060]	> 20000	–	1740	–	–
CC(C)c1nn(CC(=O)Nc2ccncn2)c(=O)c2ccc(C#N)cc12 [X-1061]	> 20000	–	> 20000	–	–

Compound	EC50 (TNF; Homo sapiens, 6 h) [nM]	melting point [°C]	IC50 (IL-1β; Homo sapiens, 6 h) [nM]	EC50 (TNF) [nM]	IC50 (IL-1β) [nM]
CC(C)c1nn(CC(=O)N[C@H]2C[C@@](C)(O)C2)c(=O)c2ccc(C3CC3(F)F)cc12 (some centres unmarked) [X-1068]	> 20000	–	2800	–	–
CC(C)c1nn(CC(=O)Nc2ccc3nncn3c2)c(=O)c2ccc(C3CC3(F)F)cc12 (centres unmarked) [X-1069]	14100	–	1140	–	–
C[C@]1(O)C[C@@H](NC(=O)Cn2nc(C3CC3)c3cc(Cl)ccc3c2=O)C1 [X-1070]	> 20000	–	406	–	–
O=C(Cn1nc(C2CC2)c2cc(Cl)ccc2c1=O)Nc1ccc2nncn2c1 [X-1071]	> 20000	–	398	–	–
Cn1nc(NC(=O)Cn2nc(C3CC3)c3cc(Cl)ccc3c2=O)ccc1=O [X-1072]	> 20000	–	1400	–	–
CCc1ccc2c(=O)n(CC(=O)Nc3ccc4nncn4c3)nc(C(C)C)c2c1 [X-1073]	> 20000	–	220	–	–
CC(C)c1nn(CC(=O)Nc2ccc3nncn3c2)c(=O)c2ccc(C3(F)CC3)cc12 [X-1074]	14800	–	27	–	–
Cc1nccc(NC(=O)Cn2nc(C(C)C)c3cc(C4(F)CC4)ccc3c2=O)c1F [X-1075]	> 20000	–	153	–	–
CC(C)c1nn(CC(=O)Nc2ccc3nncn3c2)c(=O)c2ccc(C3CCC3)cc12 [X-1078]	> 20000	–	1310	–	–
CC(O)c1nn(CC(=O)Nc2ccn(C(C)C)n2)c(=O)c2ccc(Br)cc12 (centres unmarked) [X-1079, 2-(6-bromo-4-(1-hydroxyethyl)-1-oxophthalazin-2(1H)-yl)-N-(1-isopropyl-1H-pyrazol-3-yl)acetamide]	> 20000	–	9790	–	–
CC(O)c1nn(CC(=O)N[C@H]2C[C@@](C)(O)C2)c(=O)c2ccc(Br)cc12 (some centres unmarked) [X-1080]	> 20000	–	502	–	–
CC(O)c1nn(CC(=O)Nc2ccncn2)c(=O)c2ccc(Br)cc12 (centres unmarked) [X-1081]	> 20000	–	894	–	–
CC(O)c1nn(CC(=O)Nc2ccc3nncn3c2)c(=O)c2ccc(Br)cc12 (centres unmarked) [X-1082]	> 20000	–	346	–	–
CC(C)c1ccc2c(=O)n(CC(=O)Nc3cn4cnnc4cn3)nc(C(C)C)c2c1 [X-1086]	> 20000	–	137	–	–
CO[C@]1(C)C[C@H](NC(=O)Cn2nc(C(C)C)c3cc(Br)ccc3c2=O)C1 [X-1088]	> 20000	–	196	–	–
CC[C@]1(O[Si](C)(C)C(C)(C)C)C[C@@H](NC(=O)Cn2nc(C(C)C)c3cc(Br)ccc3c2=O)C1 [X-1089, 2-(6-bromo-4-isopropyl-1-oxophthalazin-2(1H)-yl)-N-((1r,3s)-3-((tert-butyldimethylsilyl)oxy)-3-ethylcyclobutyl)acetamide]	–	–	–	> 20000	> 20000
CC[C@]1(O)C[C@@H](NC(=O)Cn2nc(C(C)C)c3cc(Br)ccc3c2=O)C1 [X-1090, 2-(6-bromo-4-isopropyl-1-oxophthalazin-2(1H)-yl)-N-((1r,3s)-3-ethyl-3-hydroxycyclobutyl)acetamide]	–	–	–	> 20000	122
